From US7485743B2, “Oligomeric ketone compounds” (BTG International Limited, priority 2004, dated 2009)

Assays:
[1] = Ketogenic effect after oral administration: β-hydroxybutyrate concentrations in rat plasma; type: in vivo, rat (male Sprague-Dawley); settings: 300 mg/kg po; for Maximum increase of plasma concentration of β-hydroxybutyrate: versus vehicle baseline
Description: Male Sprague-Dawley rats (weight range 200-250 g) were obtained from Charles River, Margate, Kent. The rats were group housed in polypropylene cages at a temperature of 21 ±4° C. and 55 ±20% humidity and on a standard light/dark cycle. Animals had free access to a standard pelleted rat diet and tap water at all times. Animals were accustomed to these conditions for at least one week before experimentation.
Animals were killed by CO2 and blood (approx, 5 ml) was collected by cardiac puncture at various times after dosing. Blood was collected into EDTA-coated plasma collection tubes (Sarstedt 5 ml K2E tubes) and kept on ice prior to centrifugation. Tubes were centrifuged in an Eppendorf 570R centrifuge at 4° C. for 5 minutes at 2500 rpm (1000 g). Following plasma separation, extreme care was taken to avoid contamination with red blood cells and samples were re-centrifuged as necessary. Plasma samples were initially frozen on dry ice and transferred to a −75° C. freezer until required for analysis.
Sodium DL-β-hydroxybutyrate (H-6501 Lot 111K2618) was obtained from Sigma. A stock solution of β-bydroxybutyrate (40 mM DL racemate equivalent to 20 mM D-isomer) was prepared in 0.9% saline solution, kept at 4° C. and used to generate appropriate dilutions for an assay standard curve.
Commercial clinical assay kits for the determination of D-β-hydroxybutyrate were obtained from Random Laboratories (Antrim, UK). Kits were obtained in two pack sizes (Ranbut RB1007: 10×10 ml and RB1008: 10×50 ml) but were otherwise identical. Each kit contained a standard solution of 1 mM D-β-hydroxybutyrate that was assayed every time to confirm the assay was performing correctly. The kit relies on measuring the appearance of NADH via the activity of β-hydroxybutyrate dehydrogenase measured as an increase of OD340 nm. An alkaline pH is necessary to drive the reaction equilibrium towards the production of NADH and acetoacetate.
The protocol supplied with the Ranbut kits was for a discrete (cuvette-based) spectrophotometric assay, so the protocol was modified for suitability with a 96-well microplate format using blank, flat-bottomed microplates (Greiner PS 655101 Lot 98 35 01). Assays were performed in triplicate using a sample volume of10 μl to each well for the standards and usually 20 μl for plasma samples (though this was varied for some experiments). Standard dilutions and samples were pipetted a single plate at a time and preincubated at 37° C. for 15 minutes in the sample compartment of a Molecular Devices VERSAMAX tunable microplate reader. The appropriate volume of assey reagent was reconstituted, according to instructions, using distilled water and preincubated at 37° C. for 15 minutes using a static water bath. The assay plate was ejected and the reaction started by adding rapidly 250 μl of reagent to each well (avoiding air bubbles). The plate was reloaded, mixed and then the change in OD340 nm followed in kinetic mode with a reading at every 15 seconds for a total of 2 minutes. The reaction rate was then determined from the OD increase over a suitable 1 minute period, after allowing a necessary period for the reaction rate to settle. The rate between 45 seconds and 105 seconds was used as the default measuring period, though occasionally a different period was used as necessary (e.g. if an aberrant reading was obtained at one of these time-points).
For analysis of spectrophotometric rate assays, linear regression analysis to the standard curve was used followed by interpolation of unknown values (GraphPad Prism 3.0) For comparison of treatment groups with vehicle, multiple 2-tailed T-tests were used and p<0.05 was taken to indicate statistical significance.

[2] = Description: Control animals received the appropriate vehicle (deionized water at 1 ml/kg) via the same route.

Row | SMILES | Time at which the maximum increase of plasma β-hydroxybutyrate was observed [1] [min] | Time by which plasma β-hydroxybutyrate returned to control values [1] [h] | Maximum increase of plasma concentration of β-hydroxybutyrate [1] [mM] | Solubility in deionized water and nature of the solution ([2]; deionized water, dosing solution for gavage) | Solubility in water ([2]; isolated product (syrup)) | Time until which plasma β-hydroxybutyrate plateaued at the maximum level [1] [min] | Level of plasma β-hydroxybutyrate at 1 h ([1]; 1 h after dosing)
1 | CC(=O)CCOC(=O)C[C@@H](C)OC(=O)C[C@@H](C)OC(=O)C[C@@H](C)O [KTX 0204, 2-keto-butan-4-ol ester of (R)-3-hydroxybutyrate triolide] | 30 | ≤ 1 | 0.25 | mostly soluble in deionized water and produced a cloudy and stable solution | water-soluble | – | –
2 | C[C@@H](O)CC(=O)[O-].[Na+] [KTX 0101, sodium (R)-3-hydroxybutyrate] | 15 | ≤ 2 | 0.4 | – | – | 30 | still significantly (P<0.05) elevated
